According to ChEMBL document CHEMBL3853288, “Biginkgosides A-I, Unexpected Minor Dimeric Flavonol Diglycosidic Truxinate and Truxillate Esters from Ginkgo biloba Leaves and Their Antineuroinflammatory and Neuroprotective Activities” (J Nat Prod, 2016):

Experiments:
[1] = Cytotoxicity against LPS-stimulated mouse BV2 cells assessed as cell viability at 20 uM incubated for 4 hrs followed by LPS stimulation for 24 hrs by MTT assay; format: toxicity, BV-2; details: read-out: Activity
[2] = Antineuroinflammatory activity in mouse BV2 cells assessed as inhibition of LPS-induced NO production incubated for 4 hrs followed by LPS stimulation for 24 hrs by Griess assay; format: functional, cell-based; details: BV-2
SH-SY5Y [3] = experiment: Neuroprotection against amyloid beta (25 to 35)-induced cell toxicity in human SH-SY5Y cells assessed as cell viability at 1 uM incubated for 2 hrs followed by amyloid beta (25 to 35) treatment for 24 hrs by MTT assay (reference value: 62.4 +/- 3.5%); format: functional; details: read-out: Activity
SH-SY5Y [4] = experiment: Neuroprotection against amyloid beta (25 to 35)-induced cell toxicity in human SH-SY5Y cells assessed as cell viability at 10 uM incubated for 2 hrs followed by amyloid beta (25 to 35) treatment for 24 hrs by MTT assay (reference value: 62.4 +/- 3.5%); format: functional; details: read-out: Activity

SMILES	IC50 [2] [µM]	further results
C[C@@H]1O[C@@H](Oc2c(-c3ccc(O)c(O)c3)oc3cc(O)cc(O)c3c2=O)[C@H](O[C@@H]2O[C@H](COC(=O)[C@H]3[C@H](c4ccc(O)cc4)[C@@H](C(=O)OC[C@H]4O[C@@H](O[C@H]5[C@H](Oc6c(-c7ccc(O)c(O)c7)oc7cc(O)cc(O)c7c6=O)O[C@@H](C)[C@H](O)[C@H]5O)[C@H](O)[C@@H](O)[C@@H]4O)[C@@H]3c3ccc(O)cc3)[C@@H](O)[C@H](O)[C@H]2O)[C@H](O)[C@H]1O	> 100	–
C[C@@H]1O[C@@H](Oc2c(-c3ccc(O)cc3)oc3cc(O)cc(O)c3c2=O)[C@H](O[C@@H]2O[C@H](COC(=O)[C@@H]3[C@H](C(=O)OC[C@H]4O[C@@H](O[C@H]5[C@H](Oc6c(-c7ccc(O)cc7)oc7cc(O)cc(O)c7c6=O)O[C@@H](C)[C@H](O)[C@H]5O)[C@H](O)[C@@H](O)[C@@H]4O)[C@@H](c4ccc(O)cc4)[C@@H]3c3ccc(O)cc3)[C@@H](O)[C@H](O)[C@H]2O)[C@H](O)[C@H]1O	> 100	–
C[C@@H]1O[C@@H](Oc2c(-c3ccc(O)cc3)oc3cc(O)cc(O)c3c2=O)[C@H](O[C@@H]2O[C@H](COC(=O)[C@@H]3[C@@H](C(=O)OC[C@H]4O[C@@H](O[C@H]5[C@H](Oc6c(-c7ccc(O)cc7)oc7cc(O)cc(O)c7c6=O)O[C@@H](C)[C@H](O)[C@H]5O)[C@H](O)[C@@H](O)[C@@H]4O)[C@@H](c4ccc(O)cc4)[C@@H]3c3ccc(O)cc3)[C@@H](O)[C@H](O)[C@H]2O)[C@H](O)[C@H]1O	> 100	–
O=C(O[C@@H]1Cc2c(O)cc(O)cc2O[C@@H]1c1cc(O)c(O)c(O)c1)c1cc(O)c(O)c(O)c1 [EPIGALOCATECHIN GALLATE]	–	viability at 10 µM (SH-SY5Y [4]): 99%
CNC(=N)NCCC[C@H](N)C(=O)O [TILARGININE]	–	viability at 24 h, 20 µM [1]: 98.5%

Continued, in another order:

IC50 [2] [µM]	SMILES	further results
2.91	C[C@@H]1O[C@@H](Oc2c(-c3ccc(O)c(O)c3)oc3cc(O)cc(O)c3c2=O)[C@H](O[C@@H]2O[C@H](COC(=O)[C@H]3[C@H](C(=O)OC[C@H]4O[C@@H](O[C@H]5[C@H](Oc6c(-c7ccc(O)c(O)c7)oc7cc(O)cc(O)c7c6=O)O[C@@H](C)[C@H](O)[C@H]5O)[C@H](O)[C@@H](O)[C@@H]4O)[C@@H](c4ccc(O)cc4)[C@@H]3c3ccc(O)cc3)[C@@H](O)[C@H](O)[C@H]2O)[C@H](O)[C@H]1O	viability at 24 h, 20 µM [1]: 99%
> 100	C[C@@H]1O[C@@H](Oc2c(-c3ccc(O)c(O)c3)oc3cc(O)cc(O)c3c2=O)[C@H](O[C@@H]2O[C@H](COC(=O)[C@@H]3[C@H](C(=O)OC[C@H]4O[C@@H](O[C@H]5[C@H](Oc6c(-c7ccc(O)c(O)c7)oc7cc(O)cc(O)c7c6=O)O[C@@H](C)[C@H](O)[C@H]5O)[C@H](O)[C@@H](O)[C@@H]4O)[C@@H](c4ccc(O)cc4)[C@H]3c3ccc(O)cc3)[C@@H](O)[C@H](O)[C@H]2O)[C@H](O)[C@H]1O	–
17.2	C[C@@H]1O[C@@H](Oc2c(-c3ccc(O)cc3)oc3cc(O)cc(O)c3c2=O)[C@H](O[C@@H]2O[C@H](COC(=O)[C@H]3[C@H](c4ccc(O)cc4)[C@@H](C(=O)OC[C@H]4O[C@@H](O[C@H]5[C@H](Oc6c(-c7ccc(O)cc7)oc7cc(O)cc(O)c7c6=O)O[C@@H](C)[C@H](O)[C@H]5O)[C@H](O)[C@@H](O)[C@@H]4O)[C@@H]3c3ccc(O)cc3)[C@@H](O)[C@H](O)[C@H]2O)[C@H](O)[C@H]1O	viability at 24 h, 20 µM [1]: 97.7%
> 100	C[C@@H]1O[C@@H](Oc2c(-c3ccc(O)cc3)oc3cc(O)cc(O)c3c2=O)[C@H](O[C@@H]2O[C@H](COC(=O)[C@H]3[C@H](C(=O)OC[C@H]4O[C@@H](O[C@H]5[C@H](Oc6c(-c7ccc(O)c(O)c7)oc7cc(O)cc(O)c7c6=O)O[C@@H](C)[C@H](O)[C@H]5O)[C@H](O)[C@@H](O)[C@@H]4O)[C@@H](c4ccc(O)cc4)[C@@H]3c3ccc(O)cc3)[C@@H](O)[C@H](O)[C@H]2O)[C@H](O)[C@H]1O	viability at 1 µM (SH-SY5Y [3]): 96.7%
> 100	C[C@@H]1O[C@@H](Oc2c(-c3ccc(O)cc3)oc3cc(O)cc(O)c3c2=O)[C@H](O[C@@H]2O[C@H](COC(=O)[C@@H]3[C@H](C(=O)OC[C@H]4O[C@@H](O[C@H]5[C@H](Oc6c(-c7ccc(O)cc7)oc7cc(O)cc(O)c7c6=O)O[C@@H](C)[C@H](O)[C@H]5O)[C@H](O)[C@@H](O)[C@@H]4O)[C@@H](c4ccc(O)cc4)[C@H]3c3ccc(O)cc3)[C@@H](O)[C@H](O)[C@H]2O)[C@H](O)[C@H]1O	–
> 100	C[C@@H]1O[C@@H](Oc2c(-c3ccc(O)cc3)oc3cc(O)cc(O)c3c2=O)[C@H](O[C@@H]2O[C@H](COC(=O)[C@H]3[C@H](C(=O)OC[C@H]4O[C@@H](O[C@H]5[C@H](Oc6c(-c7ccc(O)cc7)oc7cc(O)cc(O)c7c6=O)O[C@@H](C)[C@H](O)[C@H]5O)[C@H](O)[C@@H](O)[C@@H]4O)[C@@H](c4ccc(O)cc4)[C@@H]3c3ccc(O)cc3)[C@@H](O)[C@H](O)[C@H]2O)[C@H](O)[C@H]1O	–
